For data set [1], the target named is Bovine spleen cathepsin B (Bos taurus, UniProt P07688). Type of data set: biochemical.
The subject of the next data set is HeLa cells. Particulars: for cell death ratio: human.

Molecules are shown by their SMILES.

Take `O=C(/C=C/c1ccccc1)N[C@H](COC(=O)c1ccccc1)C(=O)NC1CCCCC1` (single isomer, unassigned) [ent-3]: the “Inhibition (%)” value in data set [1] is listed as “no inhibition”. Moreover, the “cytotoxicity (in words)” value in the data set with HeLa cells is “no cytotoxicity”.

Consider `COc1ccccc1/C=C/C(=O)N[C@@H](COC(=O)c1ccccc1)C(=O)NC1CCCCC1` [7f, (S)-N-(E)-2′-Methoxy-3-phenylprop-2-enoicserine(benzoyl)cyclohexylamide], for which, in data set [1], the “inhibitory activity relative to 3 (times)” value was “about 10 times” and the “inhibitory mechanism (Lineweaver–Burk plot)” value is given as “competitive inhibition”.

In the case of `COc1cc(/C=C/C(=O)N[C@@H](COC(=O)c2ccccc2)C(=O)NC2CCCCC2)cc(OC)c1` [7h, (S)-N-(E)-3′,5′-Dimethoxy-3-phenylprop-2-enoicserine(benzoyl)cyclohexylamide], the cell death ratio result in the data set on HeLa cells was “less than 20%”.

As for `COc1cccc(/C=C/C(=O)N[C@@H](COC(=O)c2ccccc2)C(=O)NC2CCCCC2)c1` [7i, (S)-N-(E)-3′-Methoxy-3-phenylprop-2-enoicserine(benzoyl)cyclohexylamide], in the data set on HeLa cells, the cell death ratio entry is on record as “less than 20%”.

In the case of `O=C(/C=C/c1ccc(OC(=O)c2ccccc2)cc1)N[C@@H](COC(=O)c1ccccc1)C(=O)NC1CCCCC1` [7j, (S)-N-(E)-4′-Benzoyloxy-3-phenylprop-2-enoicserine(benzoyl)cyclohexylamine], in the data set on HeLa cells, the cell death ratio entry is “less than 20%”.

As for `COc1cc(/C=C/C(=O)N[C@@H](COC(=O)c2ccccc2)C(=O)NC2CCCCC2)cc(OC)c1OC` [7k, (S)-N-(E)-3′,4′,5′-Trimethoxy-3-phenylprop-2-enoicserine(benzoyl)cyclohexylamide], the cell death ratio result with HeLa cells is “less than 20%”.

Turning to `O=C(/C=C/c1ccccc1)N[C@@H](COC(=O)c1ccccc1)C(=O)NC1CCCCC1` [compound 3, (S)-N-Cinnamoyl serine(benzoyl)cyclohexylamide], the cell death ratio result in the data set on HeLa cells is “less than 20%”.

Consider `COc1cc(/C=C/C(=O)N[C@H](COC(=O)c2ccccc2)C(=O)NC2CCCCC2)cc(OC)c1OC` [ent-7k], for which, in the data set with HeLa cells, the “cytotoxicity (in words)” value is listed as “no cytotoxicity”.

The record behind these values is PMC7111485 (Bioorganic & Medicinal Chemistry, 2016).
